Measurements published in US20230148144A1, “Cell” (AUTOLUS LIMITED, priority 2020, published 2023).

Test system: CAR-T cells
Test: Effect of Tacrolimus on proliferation of CAR-expressing cells in co-culture
Type: cell-based
Conditions: 20 ng/ml Tacrolimus
Method: Cells were co-cultures for 96 hours at a 1:4 E:T ratio in the presence or absence of 20 ng/ml of Tacrolimus. Transduced effector cells were identified based on their expression of RQR8 and their proliferation analysed using cell-trace violet (CTV) dilution. […] In a similar study, cells transduced to express either TRBC2 CAR alone or TRBC2 CAR in combination with a calcineurin mutant (CnB30) were co-cultured for 4 days with TRBC2+ positive targets in the presence or absence of 20 ng/ml of Tacrolimus. […] This was true for cells expressing TRBC2 CAR alone or co-expressing TRBC2 CAR in combination with the calcineurin mutant.

## C=CC[C@@H]1/C=C(\C)C[C@H](C)C[C@H](OC)[C@H]2O[C@@](O)(C(=O)C(=O)N3CCCC[C@H]3C(=O)O[C@H](/C(C)=C/[C@@H]3CC[C@@H](O)[C@H](OC)C3)[C@H](C)[C@@H](O)CC1=O)[C@H](C)C[C@@H]2OC [Tacrolimus]
4 days co-culture with TRBC2+ targets, FIG. 22
  proliferation of cells expressing TRBC2 CAR alone: inhibits proliferation
96 h co-culture, FIG. 16B vs FIG. 17B
  proliferation of CAR-T cells: inhibited
